According to paper PMC7481482, “Development of Anthraquinone Derivatives as Ectonucleoside Triphosphate Diphosphohydrolase (NTPDase) Inhibitors With Selectivity for NTPDase2 and NTPDase3” (Frontiers in Pharmacology, 2020):

How the values were obtained:
Type in all cases: biochemical
[1] = molecular target: T1, human NTPDase8 (Homo sapiens, UniProt Q5MY95); test: Malachite green assay, human NTPDase8; conditions: 2 μM compound; 100 µM ATP; COS-7 membrane preparation; read-out: % inhibition at 2 μM concentration, NTPDase8
T1 construct: expressed in transfected cells; host or cells: COS-7 cells (membrane preparation)
T1 sequence (Q5MY95 1-495): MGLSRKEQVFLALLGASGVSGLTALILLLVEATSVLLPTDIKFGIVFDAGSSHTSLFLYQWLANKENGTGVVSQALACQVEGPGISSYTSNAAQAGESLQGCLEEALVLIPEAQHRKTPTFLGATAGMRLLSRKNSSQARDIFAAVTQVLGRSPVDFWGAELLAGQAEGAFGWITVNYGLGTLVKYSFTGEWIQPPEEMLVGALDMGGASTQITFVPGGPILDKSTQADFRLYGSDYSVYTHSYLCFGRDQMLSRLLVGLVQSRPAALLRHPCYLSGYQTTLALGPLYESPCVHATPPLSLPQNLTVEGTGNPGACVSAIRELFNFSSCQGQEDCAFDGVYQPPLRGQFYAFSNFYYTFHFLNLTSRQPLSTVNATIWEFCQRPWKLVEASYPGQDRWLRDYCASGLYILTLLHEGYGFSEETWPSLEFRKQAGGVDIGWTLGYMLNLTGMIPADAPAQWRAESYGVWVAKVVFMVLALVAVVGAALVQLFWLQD
Experimental: (§1) Membrane preparations expressing human NTPDase1, -2, -3, or -8, respectively, were obtained as previously described ([Sévigny et al., 1997]; [Cogan et al., 1999]; [Kukulski et al., 2005]; [Lecka et al., 2013]; [Lee et al., 2018]). Enzyme inhibition assays were performed using the malachite green assay in analogy to published procedures with some modifications ([Dou et al., 2018]). The reaction buffer contained 10 mM HEPES, 2 mM CaCl2, and 1 mM MgCl2 (pH 7.4) in a final volume of 50 μL in transparent 96-well half-area plates. The compounds were initially tested at a final concentration of 2 µM using a COS-7-cell membrane preparation expressing the appropriate NTPDase isoenzyme (protein amount: 143 ng for NTPDase1, 175 ng for NTPDase2, 152 ng for NTPDase3, and 175 ng for NTPDase8). Preincubated of the enzyme preparations was perfomred at 37°C in the presence or absence of test compounds with gentle shaking (Eppendorf Thermomixer comfort at 500 rpm) for 5 min. […] ([Kukulski et al., 2005]). After 15 min of incubation at 37°C with gentle shaking, the reaction was stopped by the addition of the detection reagents (20 µL malachite green solution, 0.6 mM, and 30 µL of ammonium molybdate solution, 20 mM, in 1.5 M sulfuric acid). The released inorganic phosphate was quantified after 20 min of gentle shaking at 25°C by measuring the absorption of the malachite green-phosphomolybdate complex at 600 nm using a BMG PheraStar FS plate reader (BMG Labtech GmbH, Ortenberg, Germany). The corrected absorption was calculated by subtracting the absorption of the negative control samples, which were incubated with previously denatured enzyme (90°C, 15 min). Full concentration-inhibition curves were determined with inhibitor concentrations ranging from 0.03 to 30 µM in the presence of 2% DMSO. Inhibition-type experiments were performed with 25, 50, 100, 150 and 200 µM ATP as substrate for NTPDase2 in the presence of inhibitor 20 (0, 0.25, 0.5, and 1 µM) and 25, 50, 100 and 150 µM ATP substrate for NTPDase3 and compound 42 (0.25, 0.5, and 1 µM). For all of the presented data, at least three independent experiments were performed, and IC50 values were calculated by GraphPad Prism 8 software.
(§2) Inhibition of human NTPDases was performed using the malachite green assay, which was established on a robotic system (Z’ factors > 0.70) ([Baykov et al., 1988]; [Fiene et al., 2015]). The malachite green assay enables the detection of the phosphate produced by the enzymatic hydrolysis of nucleotides. A fixed substrate concentration of 50 µM ATP for NTPDase1 and 100 µM for NTPDase2, -3, and -8 was employed. Test compounds were initially screened at a concentration of 2 μM. […] A total of 48 synthesized anthraquinone derivatives including 14 new compounds not previously described in the literature were evaluated for their inhibitory activity at human NTPDase1, -2, -3, and -8 (for results see Table 1).

[2] = molecular target: T2, human NTPDase1 (Homo sapiens, UniProt P49961); test: Malachite green assay, human NTPDase1; conditions: 2 μM compound; 50 µM ATP; COS-7 membrane preparation; read-out: % inhibition at 2 μM concentration, NTPDase1
T2 construct: expressed in transfected cells; host or cells: COS-7 cells (membrane preparation)
T2 sequence (P49961 1-510): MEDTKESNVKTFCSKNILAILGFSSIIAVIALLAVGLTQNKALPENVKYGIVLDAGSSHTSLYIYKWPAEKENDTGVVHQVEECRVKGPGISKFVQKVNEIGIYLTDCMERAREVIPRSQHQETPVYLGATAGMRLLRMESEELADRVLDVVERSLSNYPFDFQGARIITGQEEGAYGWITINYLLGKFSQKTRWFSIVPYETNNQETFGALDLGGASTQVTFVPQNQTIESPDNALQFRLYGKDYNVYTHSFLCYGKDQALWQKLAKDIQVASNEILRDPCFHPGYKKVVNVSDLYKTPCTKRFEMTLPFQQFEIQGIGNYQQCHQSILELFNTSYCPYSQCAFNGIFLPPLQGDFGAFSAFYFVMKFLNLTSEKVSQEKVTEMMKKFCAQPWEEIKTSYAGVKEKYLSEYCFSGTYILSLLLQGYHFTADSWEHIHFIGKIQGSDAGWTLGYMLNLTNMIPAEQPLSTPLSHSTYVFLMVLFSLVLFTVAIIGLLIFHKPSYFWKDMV
Experimental: as §1, §2

[3] = molecular target: T3, human NTPDase2 (Homo sapiens, UniProt Q9Y5L3); test: Malachite green assay, human NTPDase2; conditions: 100 µM ATP, COS-7 membrane preparation; for inhibition at 2 µM: 2 μM compound, read-out: % inhibition at 2 μM concentration, NTPDase2; for IC50: read-out: IC50 ± SEM, NTPDase2
T3 construct: expressed in transfected cells; host or cells: COS-7 cells (membrane preparation)
T3 sequence (Q9Y5L3 1-495): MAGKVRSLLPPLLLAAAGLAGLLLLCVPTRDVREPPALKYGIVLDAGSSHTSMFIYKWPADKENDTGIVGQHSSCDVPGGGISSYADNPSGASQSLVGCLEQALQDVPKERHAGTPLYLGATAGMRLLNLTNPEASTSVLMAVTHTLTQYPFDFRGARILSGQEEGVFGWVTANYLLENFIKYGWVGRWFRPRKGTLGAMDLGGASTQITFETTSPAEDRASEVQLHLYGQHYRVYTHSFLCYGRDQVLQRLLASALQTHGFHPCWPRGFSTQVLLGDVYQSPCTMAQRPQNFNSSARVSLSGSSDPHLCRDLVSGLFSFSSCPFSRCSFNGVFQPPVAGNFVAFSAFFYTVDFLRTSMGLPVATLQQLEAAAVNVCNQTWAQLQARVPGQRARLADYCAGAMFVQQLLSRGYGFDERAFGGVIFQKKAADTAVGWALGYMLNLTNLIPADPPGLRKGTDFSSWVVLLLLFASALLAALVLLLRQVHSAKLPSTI
Experimental: as §1, §2

[4] = molecular target: T4, human NTPDase3 (Homo sapiens, UniProt O75355); test: Malachite green assay, human NTPDase3; conditions: for IC50 / inhibition at 2 µM: 100 µM ATP, COS-7 membrane preparation; for IC50: read-out: IC50 ± SEM, NTPDase3; for inhibition at 2 µM: 2 μM compound, read-out: % inhibition at 2 μM concentration, NTPDase3
T4 construct: expressed in transfected cells; host or cells: COS-7 cells (membrane preparation)
T4 sequence (O75355 1-529): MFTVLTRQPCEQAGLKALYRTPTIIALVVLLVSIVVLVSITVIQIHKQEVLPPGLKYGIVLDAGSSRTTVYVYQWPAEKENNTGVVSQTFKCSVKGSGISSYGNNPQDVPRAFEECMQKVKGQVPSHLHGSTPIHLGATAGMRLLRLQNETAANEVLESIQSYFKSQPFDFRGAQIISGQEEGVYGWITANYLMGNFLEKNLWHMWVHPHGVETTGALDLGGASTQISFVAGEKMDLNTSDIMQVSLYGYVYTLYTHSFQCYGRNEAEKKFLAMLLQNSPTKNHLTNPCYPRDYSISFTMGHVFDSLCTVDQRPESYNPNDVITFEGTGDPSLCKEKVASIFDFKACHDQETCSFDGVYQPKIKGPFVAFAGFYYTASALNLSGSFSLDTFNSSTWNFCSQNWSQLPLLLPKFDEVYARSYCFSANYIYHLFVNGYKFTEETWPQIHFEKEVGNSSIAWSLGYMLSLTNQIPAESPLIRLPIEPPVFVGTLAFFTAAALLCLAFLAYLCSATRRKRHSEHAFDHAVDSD
Experimental: as §1, §2

Row | SMILES | inhibition at 2 µM [1] [%] | inhibition at 2 µM [2] [%] | inhibition at 2 µM [3] [%] | IC50 [4] [µM] | inhibition type, NTPDase3 ([4]; Hanes-Woolf plot, 25-150 µM ATP, inhibitor 0.25, 0.5, 1 µM) | IC50 [3] [nM] | inhibition at 2 µM [4] [%]
1 | Nc1c(S(=O)(=O)O)cc(Nc2ccc(S(=O)(=O)O)c(Nc3nc(Cl)nc(Cl)n3)c2)c2c1C(=O)c1ccccc1C2=O [Compound 42, 1-amino-4-[3-(4,6-dichlorotriazin-2-ylamino)-4-sulfophenylamino]-9,10-dioxo-9,10-dihydroanthracene-2-sulfonate] | -7 | -2 | 10 | 0.39 ± 0.041 | mixed-type |  | 
2 | Cc1ccc(Sc2ccc(Nc3cc(S(=O)(=O)O)c(N)c4c3C(=O)c3ccccc3C4=O)cc2)c(C)c1 [Compound 49] | 27 | 46 |  |  |  | 1280 ± 340 | 36
3 | Nc1c(S(=O)(=O)O)cc(NCc2ccccc2)c2c1C(=O)c1ccccc1C2=O [Compound 12] | 3 | -10 | 11 |  |  |  | 6
4 | Nc1cc(Nc2cc(S(=O)(=O)O)c(N)c3c2C(=O)c2ccccc2C3=O)ccc1S(=O)(=O)O [Compound 31] | -19 | -15 | 1 | 4.26 ± 0.54 |  |  | 
5 | Nc1c(S(=O)(=O)O)cc(Nc2cccc(Oc3ccccc3)c2)c2c1C(=O)c1ccccc1C2=O [Compound 40] | 9 | 12 |  |  |  | 1110 ± 60 | 18
6 | Nc1c(Br)cc(Nc2cccc(C(=O)O)c2)c2c1C(=O)c1ccccc1C2=O [Compound 52] | 3 | -2 | -5 |  |  |  | 1
7 | Nc1c(S(=O)(=O)O)cc(Nc2cccc(C(=O)O)c2)c2c1C(=O)c1ccccc1C2=O [Compound 26] | -17 | -17 | 2 | 3.1 ± 0.45 |  |  | 
8 | Nc1c(S(=O)(=O)O)cc(Nc2cccc(Cc3ccccc3)c2)c2c1C(=O)c1ccccc1C2=O [Compound 39] | 28 | 36 |  | 13.1 ± 1.65 |  | 3590 ± 850 | 
9 | CCc1cccc(Nc2cc(C)c(N)c3c2C(=O)c2ccccc2C3=O)c1 [Compound 56] | -3 | -3 | 6 |  |  |  | -1
10 | Nc1c(S(=O)(=O)O)cc(Nc2ccc(Cc3ccccc3)cc2)c2c1C(=O)c1ccccc1C2=O [Compound 43] | 3 | 7 |  |  |  | 1320 ± 50 | 3
11 | Nc1c(S(=O)(=O)O)cc(Nc2ccc(O)c(C(=O)O)c2)c2c1C(=O)c1ccccc1C2=O [Compound 33, 1-amino-4-(3-carboxy-4-hydroxyphenylamino)-9,10-dioxo-9,10-dihydroanthracene-2-sulfonate] | -9 | -12 | 12 | 0.723 ± 0.032 |  |  | 
12 | Nc1c(S(=O)(=O)O)cc(Nc2cccc(Br)c2)c2c1C(=O)c1ccccc1C2=O [Compound 22] | -26 | -4 | 12 | 8.96 ± 1.08 |  |  | 
13 | Nc1c(S(=O)(=O)O)cc(NCCc2ccccc2)c2c1C(=O)c1ccccc1C2=O [Compound 13] | -3 | -12 | 12 |  |  |  | -3
14 | Nc1c(S(=O)(=O)O)cc(Nc2ccc(Sc3ccccc3)c(Cl)c2)c2c1C(=O)c1ccccc1C2=O [Compound 48, Sodium 1-amino-4-(3-chloro-4-phenylsulfanyl)-phenylamino-9,10-dioxo-9,10-dihydroanthracene-2-sulfonate] | 14 | 29 |  |  |  | 551 ± 195 | 20
15 | Nc1c(S(=O)(=O)O)cc(Nc2ccc(Sc3ccccc3)cc2)c2c1C(=O)c1ccccc1C2=O [Compound 44] | 6 | 15 |  |  |  | 934 ± 136 | 7
16 | O=C(O)c1cc(Nc2cc(S(=O)(=O)O)cc3c2C(=O)c2ccccc2C3=O)ccc1O [Compound 58] | 5 | 1 | 5 |  |  |  | 32
